Data on 21 compounds can be found in patent publication US20090215752A1, “Compounds, preparation and therapeutic use thereof” (priority 2005, published 2009).

For the first test, the target named is T1, PDE2 (Homo sapiens, UniProt O00408).
T1 construct: PDE2 was isolated from human platelets, provided by Etablissement Français du Sang-Alsace; tissue Etablissement Français du Sang-Alsace; host or cells: human platelets
T1 sequence (O00408 whole entry): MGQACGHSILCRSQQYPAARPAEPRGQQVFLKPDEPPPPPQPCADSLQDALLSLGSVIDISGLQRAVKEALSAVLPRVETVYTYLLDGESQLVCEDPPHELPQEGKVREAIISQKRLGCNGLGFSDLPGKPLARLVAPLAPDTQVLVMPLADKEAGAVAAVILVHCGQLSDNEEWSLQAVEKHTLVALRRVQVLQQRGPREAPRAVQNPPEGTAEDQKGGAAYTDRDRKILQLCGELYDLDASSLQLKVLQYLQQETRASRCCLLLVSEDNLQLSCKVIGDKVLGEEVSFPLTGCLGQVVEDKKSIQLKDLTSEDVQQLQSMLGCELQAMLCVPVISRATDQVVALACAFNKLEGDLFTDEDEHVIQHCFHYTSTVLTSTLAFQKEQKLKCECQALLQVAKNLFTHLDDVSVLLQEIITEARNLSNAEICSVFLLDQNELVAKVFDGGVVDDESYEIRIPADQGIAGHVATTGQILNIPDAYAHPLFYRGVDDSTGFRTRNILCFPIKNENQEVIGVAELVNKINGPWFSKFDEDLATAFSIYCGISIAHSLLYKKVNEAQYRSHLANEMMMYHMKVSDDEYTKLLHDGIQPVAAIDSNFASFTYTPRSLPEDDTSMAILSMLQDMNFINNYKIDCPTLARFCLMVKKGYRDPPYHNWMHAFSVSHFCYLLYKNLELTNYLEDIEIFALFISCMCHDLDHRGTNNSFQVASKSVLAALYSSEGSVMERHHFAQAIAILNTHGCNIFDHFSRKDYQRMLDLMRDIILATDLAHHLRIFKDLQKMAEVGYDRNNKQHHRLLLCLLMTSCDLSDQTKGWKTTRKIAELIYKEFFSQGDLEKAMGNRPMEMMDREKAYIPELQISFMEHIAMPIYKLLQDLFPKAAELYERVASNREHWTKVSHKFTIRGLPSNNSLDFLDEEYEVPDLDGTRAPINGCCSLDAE
As to the kind of experiment: Inhibition of PDE2 (radioenzymatic phosphodiesterase assay). Type of test: biochemical. The conditions noted are these: Table 1; 10 μM compound; 1 μM cyclic AMP. The method, then:
2.1.1. Isolation of Phosphodiesterases from Smooth Muscle A 3 g segment of bovine aortic media cut into pieces with scissors was homogenized with an ultra-turrax then a potter glass/glass homogenizer in 7 volumes by weight of buffer A containing a protease inhibitor cocktail (20 mM Tris-HCl, 0.25 M saccharose, 2 mM magnesium acetate, 1 mM dithiothreitol, 5 mM EGTA, 2000 U/ml aprotinin, 10 mg/l leupeptin and 10 mg/l soya trypsic inhibitor). The homogenizate was centrifuged at 105,000 g for 1 hour. The supernatant was loaded on a DEAE-Sephacel column (15×1.6 cm) pre-equilibrated with buffer B (buffer A without the saccharose, EGTA and protease inhibitors). The column was washed until there was no detectable absorption at 280 nm, then eluted with a linear gradient of NaCl (0-0.5 M) in buffer B. 3-ml fractions were collected and enzyme activity was determined under the conditions described hereinbelow to localize the different enzymes PDE1, PDE3, PDE4 and PDE5 which were aliquoted and frozen at −80° C. (Lugnier et al., Biochem. Phamacol., 1986, 35: 1746-1751). PDE2 was isolated from human platelets, provided by Etablissement Français du Sang-Alsace, according to Kameni Tcheudji J F et al., (J. Mol. Biol. 2001; 310: 181-791), and stored until use at −80° C. in small aliquots.
Cyclic nucleotide phosphodiesterase activity was determined by a radioenzymatic method using tritium-labelled cyclic GMP or AMP (1 μM) as substrate (Lugnier et al., 1986). ^3H-labelled adenosine or guanosine monophosphate formed by hydrolysis of the radiolabelled cyclic nucleotide was then converted to ^3H-labelled adenosine or guanosine in a second reaction with […] in excess. The nucleoside formed was separated from the nucleotides by anion exchange chromatography. Nucleoside radioactivity was determined by liquid scintillation counting. Enzymatic incubations were carried out under conditions allowing no more than 15% hydrolysis of the substrate; each point was performed in duplicate.
The concentration of substance which inhibits enzymatic activity by 50% (IC50) at 1 μM cyclic AMP was calculated by nonlinear regression from the experimental values of hydrolysis rate (Prism, GraphPad).
For `COc1cc2c(c(OC)c1-c1cccnc1)C(c1cccc(C#N)c1)=NCC(=O)N2` [Compound 4], the “PDE2 percentage inhibition at 10 μM” value amounted to 4%.

In the case of `COc1cc2c(c(OC)c1-c1ccccc1)C(c1cccc(C#CCNC(=O)OC(C)(C)C)c1)=NCC(=O)N2C` [Compound 30, {3-[3-(6,8-Dimethoxy-1-methyl-2-oxo-7-phenyl-2,3-dihydro-1-benzo[e][1,4]diazepin-5-yl)-phenyl]-prop-2-ynyl}-carbamic acid tert-butyl ester], the “PDE2 percentage inhibition at 10 μM” value amounted to 69%.

For `COc1cc2c(c(OC)c1-c1cccnc1)C(c1cccc(C(N)=O)c1)=NCC(=O)N2` [Compound 19, 3-(6,8-Dimethoxy-2-oxo-7-pyridin-3-yl-2,3-dihydro-1H-benzo[e][1,4]diazepin-5-yl)-benzamide], the “PDE2 percentage inhibition at 10 μM” value was determined as 27%.

The same test, now with this note: Table 1; 10 μM compound; 1 μM cyclic AMP; read-out: PDE2 percentage inhibition at 10 μM.
Usually inhibition stands for the relative decrease from the control value, in per cent. On to `COc1cc2c(c(OC)c1-c1ccccc1)C(c1ccccc1)=NCC(=O)N2` [Compound 3, 6,8-Dimethoxy-5,7-diphenyl-1,3-dihydro-benzo[e][1,4]diazepin-2-one], for which the inhibition at 10 µM came to 25%.

In the case of `COc1cc2c(c(OC)c1-c1ccccc1)C(c1cccc(Br)c1)=NCC(=O)N2C` [Compound 10, 5-(3-Bromo-phenyl)-6,8-dimethoxy-1-methyl-7-phenyl-1,3-dihydro-benzo[e][1,4]diazepin-2-one], the inhibition at 10 µM was 86%.

Staying with this test, now noted: read-out: PDE2 percentage inhibition at 10 μM, Table 1; 10 μM compound; 1 μM cyclic AMP.
For `CCCN1C(=O)CN=C(c2cccc(C#N)c2)c2c1cc(OC)c(-c1ccccc1)c2OC` [Compound 12, 3-(6,8-Dimethoxy-2-oxo-7-phenyl-1-propyl-2,3-dihydro-1H-benzo[e][1,4]diazepin-5-yl)-benzonitrile], the inhibition at 10 µM worked out at 17%.

`COc1cc2c(c(OC)c1-c1ccccc1)C(c1cccc(C#N)c1)=NCC(=O)N2CCCc1ccccc1` [Compound 16, 3-[6,8-Dimethoxy-2-oxo-7-phenyl-1-(3-phenyl-propyl)-2,3-dihydro-1H-benzo[e][1,4]diazepin-5-yl]-benzonitrile]: the inhibition at 10 µM came out at 18%.

For `COc1cc2c(c(OC)c1-c1ccccc1)C(c1cccc(C#CCNC(=O)OC(C)(C)C)c1)=NCC(=O)N2C` [Compound 28, {3-[3-(6,8-Dimethoxy-1-methyl-2-oxo-7-phenyl-2,3-dihydro-1H-benzo[e][1,4]diazepin-5-yl)-phenyl]-prop-2-ynyl}-carbamic acid tert-butyl ester], the inhibition at 10 µM stood at 43%.

Turning to `COc1cc2c(c(OC)c1-c1ccccc1)C(c1cccc(C(N)=O)c1)=NCC(=O)N2Cc1ccccc1` [Compound 24, 3-(1-Benzyl-6,8-dimethoxy-2-oxo-7-phenyl-2,3-dihydro-1H-benzo[e][1,4]diazepin-5-yl)-benzamide], the inhibition at 10 µM turned out to be 18%.

As for `COc1cc2c(c(OC)c1-c1ccccc1)C(c1cccc(C#N)c1)=NCC(=O)N2CC1CC1` [Compound 13, 3-(1-Cyclopropylmethyl-6,8-dimethoxy-2-oxo-7-phenyl-2,3-dihydro-1H-benzo[e][1,4]diazepin-5-yl)-benzonitrile], the inhibition at 10 µM was 20%.

On to `COc1cc2c(c(OC)c1-c1ccccc1)C(c1cccc(C#CCN)c1)=NCC(=O)N2C` [Compound 31, 5-[3-(3-Amino-prop-1-ynyl)-phenyl]6,8-dimethoxy-1-methyl-7-phenyl-1,3-dihydro-benzo[e][1,4]diazepin-2-one], for which the inhibition at 10 µM came out at 42%.

On to `COc1cc2c(c(OC)c1-c1ccccc1)C(c1cccc(C#N)c1)=NCC(=O)N2Cc1ccccc1` [Compound 14, 3-(1-Benzyl-6,8-dimethoxy-2-oxo-7-phenyl-2,3-dihydro-1H-benzo[e][1,4]diazepin-5-yl)-benzonitrile], for which the inhibition at 10 µM stood at 9%.

With `COc1cc2c(c(OC)c1-c1ccccc1)C(c1cccc(C(N)=O)c1)=NCC(=O)N2CC1CC1` [Compound 23, 3-(1-Cyclopropylmethyl-6,8-dimethoxy-2-oxo-7-phenyl-2,3-dihydro-1H-benzo[e][1,4]diazepin-5-yl)-benzamide], the inhibition at 10 µM was found to be 15%.

As for `COCC#Cc1cccc(C2=NCC(=O)N(C)c3cc(OC)c(-c4ccccc4)c(OC)c32)c1` [Compound 27, 6,8-Dimethoxy-5-[3-(3-methoxy-prop-1-ynyl)-phenyl]-1-methyl-7-phenyl-1,3-dihydro-benzo[e][1,4]diazepin-2-one], the inhibition at 10 µM was 83%.

As for `CCN1C(=O)CN=C(c2cccc(C(N)=O)c2)c2c1cc(OC)c(-c1ccccc1)c2OC` [Compound 21, 3-(6,8-Dimethoxy-2-oxo-7-phenyl-1-ethyl-2,3-dihydro-1H-benzo[e][1,4]diazepin-5-yl)-benzamide], the inhibition at 10 µM turned out to be 31%.

For the compound `CCN1C(=O)CN=C(c2cccc(C#N)c2)c2c1cc(OC)c(-c1ccccc1)c2OC` [Compound 11, 3-(6,8-Dimethoxy-2-oxo-7-phenyl-1-ethyl-2,3-dihydro-1H-benzo[e][1,4]diazepin-5-yl)-benzonitrile], the inhibition at 10 µM came out at 10%.

In the case of `CCCN1C(=O)CN=C(c2cccc(C(N)=O)c2)c2c1cc(OC)c(-c1ccccc1)c2OC` [Compound 22, 3-(6,8-Dimethoxy-2-oxo-7-phenyl-1-propyl-2,3-dihydro-1H-benzo[e][1,4]diazepin-5-yl)-benzamide], the inhibition at 10 µM stood at 16%.

For the compound `COc1cc2c(c(OC)c1-c1ccccc1)C(c1cccc(C(N)=O)c1)=NCC(=O)N2CCCc1ccccc1` [Compound 26, 3-[6,8-Dimethoxy-2-oxo-7-phenyl-1-(3-Phenyl-propyl)-2,3-dihydro-1H-benzo[e][1,4]diazepin-5-yl]-benzamide], the inhibition at 10 µM worked out at 5%.

On to `COc1cc2c(c(OC)c1-c1ccccc1)C(c1cccc(C#N)c1)=NCC(=O)N2Cc1ccc(C(F)(F)F)cc1` [Compound 15, 3-[6,8-Dimethoxy-2-oxo-7-phenyl-1-(4-trifluoromethyl-benzyl)-2,3-dihydro-1H-benzo[e][1,4]diazepin-5-yl]-benzonitrile], for which the inhibition at 10 µM came to 9%.

Take `COc1cc2c(c(OC)c1-c1ccccc1)C(c1cccc(C(N)=O)c1)=NCC(=O)N2Cc1ccc(C(F)(F)F)cc1` [Compound 25, 3-[6,8-Dimethoxy-2-oxo-7-phenyl-1-(4-trifluoromethyl-benzyl)-2,3-dihydro-1H-benzo[e][1,4]diazepin-5-yl]-benzamide]: the inhibition at 10 µM stood at 18%.

With `COc1cc2c(c(OC)c1-c1ccccc1)C(c1cccc(CCCN)c1)=NCC(=O)N2C` [Compound 32, 5-[3-(3-Amino-propyl)-phenyl]-6,8-dimethoxy-1-methyl-7-phenyl-1,3-dihydro-benzo[e][1,4]diazepin-2-one], the inhibition at 10 µM was determined as 22%.
